Data: paper PMC11191095, “QSAR Reveals Decreased Lipophilicity of Polar Residues Determines the Selectivity of Antimicrobial Peptide Activity” (ACS Omega, 2024)
Where a SMILES comes first, the peptide text is derived from it.

How the values were obtained:
E. coli LEC001 = experiment: microbe, parasite or virus in culture; format: cell-based, Escherichia coli
In short: (§1)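 Peptides 128→2 μg/mL, 2-fold series; inoculum ~5 × 10^5 CFU/mL from overnight culture (OD600 0.01, mixed 1:1). MHB non-cation-adjusted for bacteria, RPMI 1640 + 2% glucose for fungi. 37 °C, 20 h, OD600. MIC50/MIC90 at 50%/90% inhibition; n ≥ 3.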

E. coli NCTC 12923 = experiment: microbe, parasite or virus in culture; format: cell-based, Escherichia coli
In short: as §1

A. baumannii ATCC 17978 = experiment: microbe, parasite or virus in culture; format: cell-based, Acinetobacter baumannii
In short: as §1

K. pneumoniae M6 = experiment: microbe, parasite or virus in culture; format: cell-based, Klebsiella pneumoniae
In short: as §1

[1] = test system: S. aureus (MSSA) ATCC 9144; experiment: microbe, parasite or virus in culture; format: cell-based, Staphylococcus aureus
In short: as §1

C. auris TDG 1912 = experiment: microbe, parasite or virus in culture; format: cell-based, Candida auris
In short: as §1

C. albicans NCPF 3281 = experiment: microbe, parasite or virus in culture; format: cell-based
In short: as §1

C. glabrata NCPF 8018 = experiment: microbe, parasite or virus in culture; format: cell-based
In short: as §1

C. krusei NCPF 3876 = experiment: microbe, parasite or virus in culture; format: cell-based
In short: as §1

[2] = test system: C. parapsilosis NCPF 3209; experiment: microbe, parasite or virus in culture; format: cell-based
In short: as §1

C. tropicalis NCPF 8760 = experiment: microbe, parasite or virus in culture; format: cell-based
In short: as §1

human erythrocytes = experiment: In vitro hemolytic activity; format: cell-based; conditions: 1 h
Experimental: Potential erythrocyte hemolysis was tested by incubating serial dilutions of the AMPs in PBS with freshly collected erythrocytes at a ratio of 1:1 in 96-well polypropylene V-shape plates for 1 h at 37 °C. Control wells were treated with 0.1% Triton-X-100 to ensure complete lysis or PBS-only to represent no lysis. The erythrocytes were collected by centrifugation and the OD550 of the supernatant was measured using a plate reader. The percentage hemolysis was calculated as [drawing 1] 1 where Apeptide is the absorbance value of erythrocytes exposed to a known peptide concentration, Agrowth control is the absorbance of erythrocytes exposed to 0.1% Triton-X-100 and Ablank is the absorbance of erythrocytes exposed to the PBS. The concentrations at which a peptide caused 10% (HC10) and 50% (HC50) hemolysis was determined from the dose response curves.

P. aeruginosa NCTC 13437 = experiment: microbe, parasite or virus in culture; format: cell-based, Pseudomonas aeruginosa; conditions: P. aeruginosa NCTC 13437 (R)
In short: as §1

P. aeruginosa PAO1 = experiment: microbe, parasite or virus in culture; format: cell-based, Pseudomonas aeruginosa; conditions: P. aeruginosa PAO1 (S)
In short: as §1

A. baumannii AYE = experiment: microbe, parasite or virus in culture; format: cell-based, Acinetobacter baumannii; conditions: A. baumannii AYE (R); shown in µM
In short: as §1

K. pneumoniae NCTC 13368 = experiment: microbe, parasite or virus in culture; format: cell-based, Klebsiella pneumoniae; conditions: K. pneumoniae NCTC 13368 (R); shown in µM
In short: as §1

S. aureus (MRSA) 1199B = experiment: microbe, parasite or virus in culture; format: cell-based, Staphylococcus aureus; conditions: S. aureus (MRSA) 1199B (R); shown in µM
In short: as §1

[3] = test system: S. aureus (MRSA) NCTC 13616; experiment: microbe, parasite or virus in culture; format: cell-based, Staphylococcus aureus; conditions: S. aureus (MRSA) NCTC 13616 (R); shown in µM
In short: as §1

S. aureus (MRSA) USA300 = experiment: microbe, parasite or virus in culture; format: cell-based, Staphylococcus aureus; conditions: S. aureus (MRSA) USA300 (R); shown in µM
In short: as §1

[4] = human erythrocytes in PBS, 37 °C, OD550, from dose response curves
[5] = E. coli LEC001 (R), shown in µM
[6] = E. coli NCTC 12923 (S), shown in µM
[7] = MHB, 37 °C, 20 h, OD600, min. three biological repeats
[8] = A. baumannii ATCC 17978 (S), shown in µM
[9] = K. pneumoniae M6 (S), shown in µM
[10] = S. aureus (MSSA) ATCC 9144 (S), shown in µM
[11] = C. auris TDG 1912, 50% growth inhibition, RPMI 1640 + 2% glucose, 37 °C, 20 h, OD600
[12] = C. auris TDG 1912, 90% growth inhibition, RPMI 1640 + 2% glucose, 37 °C, 20 h, OD600
[13] = C. albicans NCPF 3281, shown in µM
[14] = C. glabrata NCPF 8018, shown in µM
[15] = C. krusei NCPF 3876, shown in µM
[16] = C. parapsilosis NCPF 3209, shown in µM
[17] = C. tropicalis NCPF 8760, shown in µM

CSCC[C@H](NC(=O)[C@H](CCSC)NC(=O)[C@H](CCCCN)NC(=O)CNC(=O)[C@@H](NC(=O)[C@@H](NC(=O)[C@H](CCCCN)NC(=O)[C@H](CC(C)C)NC(=O)CNC(=O)[C@H](Cc1ccccc1)NC(=O)[C@H](CCCCN)NC(=O)[C@H](Cc1ccccc1)NC(=O)[C@H](C)NC(=O)[C@H](CCCCN)NC(=O)CNC(=O)[C@H](CC(C)C)NC(=O)[C@H](CC(C)C)NC(=O)[C@H](CO)NC(=O)CNC(=O)[C@H](CC(C)C)NC(=O)CN)[C@@H](C)O)C(C)C)C(=O)NCC(=O)NCC(=O)N[C@@H](C)C(=O)N1CCC[C@H]1C(=O)N[C@@H](CCCNC(=N)N)C(=O)N[C@@H](CCC(=O)O)C(=O)N[C@@H](CCC(N)=O)C(=O)O [CPF-MW1] (H-GLGSLLGKAFKFGLKTVGKMMGGAPREQ-OH)
Modal MIC (E. coli LEC001; LEC001, 20 h): 2.7 µM
Modal MIC (E. coli NCTC 12923; NCTC 12923, 20 h): 2.7 µM
Modal MIC (A. baumannii ATCC 17978; ATCC 17978, 20 h): 1.4 µM
Modal MIC (K. pneumoniae M6; M6, 20 h): 5.4 µM
Modal MIC ([1]; ATCC 9144, 20 h): 1.4 µM
Modal MIC50 (C. auris TDG 1912; TDG 1912, 20 h): > 43.1 µM
Modal MIC90 (C. auris TDG 1912; TDG 1912, 20 h): > 43.1 µM
Modal MIC50 (C. albicans NCPF 3281; NCPF 3281, 20 h): > 43.1 µM
Modal MIC90 (C. albicans NCPF 3281; NCPF 3281, 20 h): > 43.1 µM
Modal MIC50 (C. glabrata NCPF 8018; NCPF 8018, 20 h): > 43.1 µM
Modal MIC90 (C. glabrata NCPF 8018; NCPF 8018, 20 h): > 43.1 µM
Modal MIC50 (C. krusei NCPF 3876; NCPF 3876, 20 h): 10.8 µM
Modal MIC90 (C. krusei NCPF 3876; NCPF 3876, 20 h): 10.8 µM
Modal MIC50 ([2]; NCPF 3209, 20 h): > 43.1 µM
Modal MIC90 ([2]; NCPF 3209, 20 h): > 43.1 µM
Modal MIC50 (C. tropicalis NCPF 8760; NCPF 8760, 20 h): 21.6 µM
Modal MIC90 (C. tropicalis NCPF 8760; NCPF 8760, 20 h): 21.6 µM
HC10 (concentration causing 10% hemolysis) (human erythrocytes; [4]): 214 µg/mL
% hemolysis (human erythrocytes; red cells of human, 256 μg/mL): more than 10%

CC[C@H](C)[C@H](NC(=O)[C@H](C)NC(=O)CNC(=O)[C@H](C)NC(=O)[C@H](CCCCN)NC(=O)[C@H](CO)NC(=O)[C@H](C)NC(=O)[C@H](CCSC)NC(=O)CN)C(=O)N[C@@H](C)C(=O)NCC(=O)N[C@@H](CCCCN)C(=O)N[C@H](C(=O)N[C@@H](C)C(=O)N[C@@H](CCCCN)C(=O)N[C@H](C(=O)N[C@@H](C)C(=O)N[C@@H](CC(C)C)C(=O)N[C@@H](CCCCN)C(=O)N[C@@H](C)C(=O)N[C@@H](CC(C)C)C(N)=O)C(C)C)[C@@H](C)CC [DRAMP02272a] (H-GMASKAGAIAGKIAKVALKAL-NH2)
Modal MIC (E. coli LEC001; [5]): 4 µM
Modal MIC (E. coli NCTC 12923; [6]): 2 µM
Modal MIC (P. aeruginosa NCTC 13437; [7]): > 128 µg/mL
Modal MIC (P. aeruginosa NCTC 13437; shown in µM): > 64 µM
Modal MIC (P. aeruginosa PAO1; [7]): > 128 µg/mL
Modal MIC (P. aeruginosa PAO1; shown in µM): > 64 µM
Modal MIC (A. baumannii ATCC 17978; [8]): 2 µM
Modal MIC (A. baumannii AYE): 1 µM
Modal MIC (K. pneumoniae M6; [9]): 16 µM
Modal MIC (K. pneumoniae NCTC 13368): 32 µM
Modal MIC (S. aureus (MRSA) 1199B): 32 µM
Modal MIC [3]: 8 µM
Modal MIC (S. aureus (MRSA) USA300): 16 µM
Modal MIC [1, 10]: 4 µM
Modal MIC50 (C. auris TDG 1912; [11]): > 128 µg/mL
Modal MIC90 (C. auris TDG 1912; [12]): > 128 µg/mL
Modal MIC50 (C. auris TDG 1912; C. auris TDG 1912, shown in µM): > 64 µM
Modal MIC90 (C. auris TDG 1912; C. auris TDG 1912, shown in µM): > 64 µM
Modal MIC50 (C. albicans NCPF 3281; C. albicans NCPF 3281, 50% growth inhibition, RPMI 1640 + 2% glucose, 37 °C, 20 h): > 128 µg/mL
Modal MIC90 (C. albicans NCPF 3281; C. albicans NCPF 3281, 90% growth inhibition, RPMI 1640 + 2% glucose, 37 °C, 20 h): > 128 µg/mL
Modal MIC50 (C. albicans NCPF 3281; [13]): > 64 µM
Modal MIC90 (C. albicans NCPF 3281; [13]): > 64 µM
Modal MIC50 (C. glabrata NCPF 8018; C. glabrata NCPF 8018, 50% growth inhibition, RPMI 1640 + 2% glucose, 37 °C, 20 h): > 128 µg/mL
Modal MIC90 (C. glabrata NCPF 8018; C. glabrata NCPF 8018, 90% growth inhibition, RPMI 1640 + 2% glucose, 37 °C, 20 h): > 128 µg/mL
Modal MIC50 (C. glabrata NCPF 8018; [14]): > 64 µM
Modal MIC90 (C. glabrata NCPF 8018; [14]): > 64 µM
Modal MIC50 (C. krusei NCPF 3876; [15]): 64 µM
Modal MIC90 (C. krusei NCPF 3876; [15]): 64 µM
Modal MIC50 ([2]; C. parapsilosis NCPF 3209, 50% growth inhibition, RPMI 1640 + 2% glucose, 37 °C, 20 h): > 128 µg/mL
Modal MIC90 ([2]; C. parapsilosis NCPF 3209, 90% growth inhibition, RPMI 1640 + 2% glucose, 37 °C, 20 h): > 128 µg/mL
Modal MIC50 [2, 16]: > 64 µM
Modal MIC90 [2, 16]: > 64 µM
Modal MIC50 (C. tropicalis NCPF 8760; [17]): 16 µM
Modal MIC90 (C. tropicalis NCPF 8760; [17]): 16 µM

CC[C@H](C)[C@H](NC(=O)[C@H](Cc1c[nH]c2ccccc12)NC(=O)[C@H](CC(=O)O)NC(=O)[C@H](Cc1c[nH]c2ccccc12)NC(=O)[C@@H](NC(=O)[C@H](CCCCN)NC(=O)CN)C(C)C)C(=O)N[C@@H](CCCCN)C(=O)N[C@@H](CO)C(=O)N[C@H](C(=O)N[C@@H](C)C(=O)N[C@@H](CCCCN)C(=O)N[C@@H](CCCCN)C(=O)N[C@@H](CC(C)C)C(=O)N[C@@H](Cc1c[nH]c2ccccc12)C(=O)N[C@@H](CC(N)=O)C(N)=O)[C@@H](C)O [Opis16a] (H-GKVWDWIKSTAKKLWN-NH2)
Modal MIC (E. coli LEC001; [5]): 2 µM
Modal MIC (E. coli NCTC 12923; [6]): 2 µM
Modal MIC (P. aeruginosa NCTC 13437; shown in µM): 16.2 µM
Modal MIC (P. aeruginosa PAO1; shown in µM): 64.7 µM
Modal MIC (A. baumannii ATCC 17978; [8]): 1 µM
Modal MIC (A. baumannii AYE): 1 µM
Modal MIC (K. pneumoniae M6; [9]): 4 µM
Modal MIC (K. pneumoniae NCTC 13368): 8.1 µM
Modal MIC (S. aureus (MRSA) 1199B): 2 µM
Modal MIC [3]: 2 µM
Modal MIC (S. aureus (MRSA) USA300): 4 µM
Modal MIC [1, 10]: 1 µM
Modal MIC50 (C. auris TDG 1912; [11]): > 128 µg/mL
Modal MIC90 (C. auris TDG 1912; [12]): > 128 µg/mL
Modal MIC50 (C. auris TDG 1912; C. auris TDG 1912, shown in µM): > 64.7 µM
Modal MIC90 (C. auris TDG 1912; C. auris TDG 1912, shown in µM): > 64.7 µM
Modal MIC50 (C. albicans NCPF 3281; [13]): 32.4 µM
Modal MIC90 (C. albicans NCPF 3281; [13]): 64.7 µM
Modal MIC50 (C. glabrata NCPF 8018; [14]): 64.7 µM
Modal MIC90 (C. glabrata NCPF 8018; [14]): 64.7 µM
Modal MIC50 (C. krusei NCPF 3876; [15]): 16.2 µM
Modal MIC90 (C. krusei NCPF 3876; [15]): 16.2 µM
Modal MIC50 [2, 16]: 32.4 µM
Modal MIC90 [2, 16]: 64.7 µM
Modal MIC50 (C. tropicalis NCPF 8760; [17]): 4 µM
Modal MIC90 (C. tropicalis NCPF 8760; [17]): 4 µM
HC10 (concentration causing 10% hemolysis) (human erythrocytes; [4]): 155 µg/mL
HC50 (concentration causing 50% hemolysis) (human erythrocytes; [4]): > 256 µg/mL
